Measurements from patent publication US4820834A, “Benzodiazepine analogs” (priority 1987, dated 1989).
Read-outs that look alike come from different tables or passages of the source.

Tests used:
[1] = target: T1, CCK receptor (brain, cerebral cortex) (Cavia porcellus, UniProt H0VZC5); assay: biochemical; type: binding, Male Hartley guinea pigs; details: guinea pig cerebral cortex, ^125 I-CCK-33, 25° C., 2 hours
T1 construct: Cerebral cortex was dissected and used as a receptor source; from tissue; host or cells: guinea pig cerebral cortex membranes (male Hartley)
T1 sequence (H0VZC5 1-426): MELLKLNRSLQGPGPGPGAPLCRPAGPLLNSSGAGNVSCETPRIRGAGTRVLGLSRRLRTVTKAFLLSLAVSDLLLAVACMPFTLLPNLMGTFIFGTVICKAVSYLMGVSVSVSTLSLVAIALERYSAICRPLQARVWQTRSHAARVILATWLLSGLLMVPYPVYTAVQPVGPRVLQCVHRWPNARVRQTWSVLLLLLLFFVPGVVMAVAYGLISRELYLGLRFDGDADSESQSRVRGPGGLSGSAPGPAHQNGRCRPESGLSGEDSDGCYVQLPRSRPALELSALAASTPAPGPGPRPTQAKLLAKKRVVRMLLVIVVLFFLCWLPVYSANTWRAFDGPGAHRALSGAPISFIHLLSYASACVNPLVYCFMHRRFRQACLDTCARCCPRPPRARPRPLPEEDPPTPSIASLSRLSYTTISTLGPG
Method in brief: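 Guinea pig cerebral cortex homogenate as receptor source, with radiolabeled CCK-33 in HEPES buffer containing MgCl2, bacitracin, EGTA and 0.4% BSA. Incubation 2 h at 25°C; bound ligand pelleted by centrifugation and gamma-counted.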

CCK receptor (pancreas) = target: T2, CCK receptor (pancreas) (Rattus norvegicus, UniProt P30551); assay: CCK Receptor Binding (Pancreas): inhibition of ^125 I-CCK-33 binding; parameters: species or system Male Sprague-Dawley rats; details: rat pancreas membranes, ^125 I-CCK-33, 37° C., 30 minutes
T2 construct: The whole pancreas was dissected free of fat tissue and was homogenized; from tissue; host or cells: rat pancreas membranes (Sprague-Dawley)
T2 sequence (P30551 1-444): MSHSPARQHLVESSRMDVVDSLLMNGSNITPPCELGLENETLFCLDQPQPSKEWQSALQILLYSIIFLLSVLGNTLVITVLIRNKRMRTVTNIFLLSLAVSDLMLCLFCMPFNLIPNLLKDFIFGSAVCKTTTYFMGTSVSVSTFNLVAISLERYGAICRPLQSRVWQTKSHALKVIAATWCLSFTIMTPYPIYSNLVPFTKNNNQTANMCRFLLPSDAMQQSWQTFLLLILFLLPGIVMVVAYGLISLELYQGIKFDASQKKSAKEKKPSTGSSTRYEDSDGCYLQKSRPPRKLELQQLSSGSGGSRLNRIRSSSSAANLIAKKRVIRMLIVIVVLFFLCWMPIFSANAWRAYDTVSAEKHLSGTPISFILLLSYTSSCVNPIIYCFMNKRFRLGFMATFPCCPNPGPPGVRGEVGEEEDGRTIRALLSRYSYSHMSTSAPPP
Procedure: 1. CCK Receptor Binding (Pancreas)
CCK-33 was radiolabeled with ^125 I-Bolton Hunter reagent (2000 Ci/mmole) as described by Sankara et al. (J. Biol. Chem. 254: 9349-9351, 1979). Receptor binding was performed according to Innis and Snyder (Proc. Natl. Acad. Sci. 77: 6917-6921, 1980) with the minor modification of adding the additional protease inhibitors, phenylmethane sulfonyl fluoride and o-phenanthroline.
Male Sprague-Dawley rats (200-350 g) were sacrificed by decapitation. The whole pancreas was dissected free of fat tissue and was homogenized in 20 volumes of ice-cold 50 mM, Tris HCl (pH 7.7 at 25° C.) with a Brinkmann Polytron PT 10. The homogenates were centrifuged at 48,000 g for 10 min. Pellets were resuspended in Tris Buffer, centrifuged as above and resuspended in 200 volumes of binding assay buffer (50 mM Tris HCl, pH 7.7 at 25° C., 5 mM dithiothrietol, 0.1 mM bacitracin, 1.2 mM phenylmethane sulfonyl fluoride and 0.5 mM o-phenanthroline). […] All assays were run in duplicate or triplicate. The reaction mixtures were incubated at 37° C. for 30 minutes and centrifuged in a Beckman Microfuge (4 minutes) immediately after adding 1 ml of ice-cold incubation buffer. The supernatant was aspirated and discarded, pellets were counted with a Beckman gamma 5000. For Scatchard analysis (Ann. N.Y. Acad. Sci. 51: 660, 1949), ^125 I-CCK-33 was progressively diluted with increasing concentrations of CCK-33.

[2] = target: T3, Gastrin receptor (gastric glands) (Cavia porcellus, UniProt H0VZC5); assay: Gastrin Receptor Binding in Guinea Pig Gastric Glands; parameters: species or system guinea pig (male Hartley); details: 25° C., 30 minutes
T3 construct: The washed guinea pig gastric glands prepared as above were resuspended; from tissue; host or cells: guinea pig gastric mucosal glands (male Hartley)
T3 sequence (H0VZC5 1-426): T1 sequence (H0VZC5 1-426)

[3] = read-out: IC50 ^125 I-CCK Pancreas
[4] = IC50 ^125 I-Gastrin Gastric Glands
[5] = ^125 I-gastrin, read-out: IC50 ^125 I-Gastrin Gastric Glands
[6] = read-out: IC50 ^125 I-CCK Brain

| SMILES | IC50 ([1]; IC50 ^125 I-CCK Brain) | IC50 (CCK receptor (pancreas); [3]) | IC50 [2, 4] | IC50 [2, 5] | IC50 (CCK receptor (pancreas); IC50 ^125 I-CCK Pancreas) | IC50 [1, 6] |
| --- | --- | --- | --- | --- | --- | --- |
| CN1C(=O)[C@H](NC(=O)Nc2cccc(Cl)c2)N=C(c2ccccc2)c2ccccc21 [Example 296, (R)-N-(2,3-Dihydro-1-methyl-2-oxo-5-phenyl-1H-1,4-benzodiazepin-3-yl)-N'-(3-chloroohenyl)-urea] | 7.5 nM | 290 nM | 2.2 nM |  |  |  |
| COc1cccc(NC(=O)N[C@H]2N=C(c3ccccc3)c3ccccc3N(C)C2=O)c1 [Example 267, (S)-N-(2,3-Dihydro-1-methyl-2-oxo-5-phenyl-1H-1,4-benzodiazepin-3-yl)-N'-(3-methoxyphenyl)-urea] | 290 nM | 1.3 nM |  | 190 nM |  |  |
| CN1C(=O)[C@@H](NC(=O)c2ccc(C(F)(F)F)cc2)N=C(c2ccccc2F)c2ccccc21 [Example 219, (S)-N-(5-(2-Fluorophenyl)-2,3-dihydro-1-methyl-2-oxo-1H-1,4-benzodiazepin-3-yl)-4-(trifluoromethyl)-benzamide] | 1400 nM |  |  | 440 nM | 0.5 nM |  |
| CCOC(=O)CN1C(=O)C(NC(=O)c2cc3ccccc3[nH]2)N=C(c2ccccc2F)c2ccccc21 (centres unmarked) [Example 214, 5-(2-Fluorophenyl)-2,3-dihydro-3-((1H-indol-2-ylcarbonyl)amino)-2-oxo-1H-1,4-benzodiazepine-1-acetic acid ethyl ester] | 220 nM | 3 nM | 120 nM |  |  |  |
| O=C(CN1C(=O)C(NC(=O)Nc2ccc(Cl)cc2)N=C(c2ccccc2)c2ccccc21)NCc1ccccc1 (centres unmarked) [Example 220] |  | 2400 nM |  | 150 nM |  | 100 nM |
| COc1cccc(NC(=O)NC2N=C(c3ccc(C)cc3)c3ccccc3N(C)C2=O)c1 (centres unmarked) [Example 292, N-(3-Methoxyphenyl)-N'-(2,3-dihydro-1-methyl-2-oxo-5-(p-tolyl)-1H-1,4-benzodiazepin-3-yl)-urea] |  |  |  | 11.5 nM | 1 nM | 3.5 nM |
| CN1C(=O)C(C(O)c2ccsc2)N=C(c2ccccc2)c2ccccc21 (racemic) [Example 49, 1,3-Dihydro-3-(RS)-[1-hydroxy-1-(3-thienyl)]methyl-1-methyl-5-phenyl-2H-1,4-benzodiazepin-2-one] |  |  |  | 34000 nM | > 100000 nM | 100000 nM |
| CN1C(=O)C(NC(=O)c2ccc(C(F)(F)F)cc2)N=C(c2ccccc2F)c2ccccc21 (centres unmarked) [Example 218, N-(5-(2-Fluorophenyl)-2,3-dihydro-1-methyl-2-oxo-1H-1,4-benzodiazepin-3-yl)-4-(trifluoromethyl)-benzamide] |  |  |  | 1800 nM | 2.6 nM |  |
| CCCCCc1ccc(C(=O)N[C@@H]2N=C(c3ccccc3)c3ccccc3N(C)C2=O)cc1 [Example 206, (R)-N-(2,3-Dihydro-1-methyl-2-oxo-5-phenyl-1H-1,4-benzodiazepin-3-yl)-4-pentylbenzamide] |  | 12000 nM |  | > 100000 nM |  |  |
| O=C1Nc2ccccc2C(c2ccccc2F)=NC1Cc1cccs1 (racemic) [Example 19, 1,3-Dihydro-5-(2-fluorophenyl)-3(RS)-(2-thienyl)methyl-2H-1,4-benzodiazepin-2-one] | > 100000 nM |  |  |  | 33000 nM |  |
| O=C1Nc2ccc(Cl)cc2C(c2ccccc2)=NC1Cc1ccc2ccccc2c1 (racemic) [Example 18, 7-Chloro-1,3-dihydro-3(RS)-(2-naphthyl)methyl-5-phenyl-2H-1,4-benzodiazepin-2-one] | 61000 nM |  |  |  | 49000 nM |  |
| CCOC(=O)CN1C(=O)[C@@H](Cc2c[nH]c3ccccc23)N=C(c2ccccc2F)c2ccccc21 [Example 42, 1,3-Dihydro-1-(ethoxycarbonylmethyl)-5-(2-fluorophenyl)-3(R)-(3'-indolyl)methyl-2H-1,4-benzodiazepin-2-one] | > 100000 nM |  |  |  | 8300 nM |  |
| CN1C(=O)[C@@H](Cc2c[nH]c3ccccc23)N=C(c2ccccc2F)c2ccccc21 [Example 4b, 1,3-dihydro-5-(2-fluorophenyl)-3(R)-(3'-indolyl) methyl-1-methyl-2H-1,4-benzodiazepin-2-one] | 18000 nM |  |  |  | 270 nM |  |
| CCCCCc1ccc(C(=O)N[C@H]2N=C(c3ccccc3)c3ccccc3N(C)C2=O)cc1 [Example 201] |  | 250 nM |  | > 100000 nM |  |  |
| Cc1cccc(NC(=O)N[C@@H]2N=C(c3ccccc3)c3ccccc3N(C)C2=O)c1 [Example 281, (R)-N-(2,3-Dihydro-1-methyl-2-oxo-5-phenyl-1H-1,4-benzodiazepin-3-yl)-N'-(3-methylphenyl)-urea] |  |  |  | 0.66 nM | 1400 nM |  |
| O=C1Nc2ccc(Cl)cc2C(c2ccccc2)N[C@H]1Cc1c[nH]c2ccccc12 (stereo partly drawn) [Example 26, 7-Chloro-1,3,4,5-tetrahydro-3(S)-(3'-indolyl)methyl-5-phenyl-2H-1,4-benzodiazepin-2-one] |  | 75000 nM |  |  |  | > 100000 nM |
| Cc1cccc(NC(=O)NC2N=C(c3ccccc3)c3ccccc3N(C)C2=O)c1 (centres unmarked) [Example 263, N-(2,3-Dihydro-1-methyl-2-oxo-5-phenyl-1H-1,4-benzodiazepin-3-yl)-N'-(3-methylphenyl)-urea] |  | 8.1 nM |  | 3.1 nM |  |  |
| O=C1Nc2ccc(Cl)cc2C(c2ccccc2)=N[C@@H]1Cc1c[nH]c2ccccc12 [Example 5, 7-Chloro-1,3-dihydro-3(R)-(3'-indolyl)methyl-5-phenyl-2H-1,4-benzodiazepin-2-one] | 100000 nM |  |  |  | 3400 nM |  |
| O=C1Nc2ccccc2C(c2ccccc2F)=NC1Cc1c[nH]c2cc(F)ccc12 (racemic) [Example 60, 1,3-Dihydro-3(RS)-[3'-(6'-fluoroindolyl)methyl]-5-o-fluorophenyl-2H-1,4-benzodiazepin-2-one] | 100000 nM |  |  |  | 1300 nM |  |
| CN1C(=O)[C@@H](Cc2cn(Cc3ccccc3)c3ccccc23)N=C(c2ccccc2)c2cc(Cl)ccc21 [Example 46, 7-Chloro-1,3-dihydro-3(R)-[3'(1'-benzylindolyl)methyl]1-methyl-5-phenyl-2H-1,4-benzodiazepin-2-one] | > 100000 nM |  |  |  | > 100000 nM |  |
| S=C1Nc2ccc(Cl)cc2C(c2ccccc2)=N[C@@H]1Cc1c[nH]c2ccccc12 [Example 34, 7-Chloro-1,3-dihydro-3(R)-(3'-indolyl)methyl-5-phenyl-2H-1,4-benzodiazepin-2-thione] | > 100000 nM |  |  |  | 4500 nM |  |
| CN1C(=O)[C@@H](Cc2c[nH]c3ccccc23)N=C(c2ccccc2)c2cc(Cl)ccc21 [Example 31, 7-Chloro-1,3-Dihydro-3(R)-(3'-indolyl)methyl-1-methyl-5-phenyl-2H-1,4-benzodiazepin-2-one] | > 100000 nM |  |  |  | 1400 nM |  |
| O=C1Nc2ccc(Cl)cc2C(c2ccccc2Cl)=N[C@@H]1Cc1c[nH]c2ccccc12 [Example 28, 7-Chloro-5-(2-chlorophenyl)-1,3-dihydro-3(R)-(3'-indolyl)methyl-2H-1,4-benzodiazepin-2-one] | > 100000 nM |  |  |  | 5000 nM |  |
